The values below come from US11584733B2, “Selective histone deacetylase inhibitors for the treatment of human disease” (Shuttle Pharmaceuticals, Inc., priority 2017, dated 2023).

Assay [1] relates to Pan HDAC (HeLa Nuclear Extract). Kind of assay: Pan HDAC assay (Enzo Fluor-de-Lys fluorometric kit, HeLa Nuclear Extract). Format: biochemical. As to the method: The Pan HDAC assays described herein were performed as follows:
Materials: Enzo Fluor-de-Lys HDAC fluorometric activity assay kit; 360 nm excitation 460 nm emission Plate Reader; Disposable pipettes; Pipet-aid; Pipette tips; Micro-pipetter; DMSO; Sterile micro-tubes and conical tubes; and Micro-centrifuge.
Test compounds and control preparation: All test compounds' stock solutions were made in 100% DMSO. Test compound dilutions were made in HDAC Assay buffer with a final concentration of DMSO less than or equal to 1%. Vehicle control was HDAC Assay buffer with 1% DMSO.
The reagents for the assay were prepared as follows:
1. All kit components were defrosted and these, and all dilutions described below, were kept on ice until use. All undiluted kit components are stable for several hours on ice.
2. A sufficient amount of HeLa Nuclear Extract (BML-KI140) or other HDAC source diluted in Assay Buffer (BML-KI143) was prepared to provide for the assays that were performed (# of wells×15 μl). A 30-fold dilution of the HeLa Extract means that 15 μL contains 0.5 μl of the undiluted Extract, an appropriate amount to use per well.
3. Dilution(s) of SAHA and/or Test Inhibitors were prepared in Assay Buffer (BML-K1143). Since 10 μl were used per well, and since the final volume of the HDAC reaction was 50 μl, these inhibitor dilutions were 5× their final concentration.
4. Dilution(s) of the Fluor de Lys® Substrate (BML-KI104; 50 mM) were prepared in Assay Buffer (BML-K1143) that were 2× the desired final concentration(s). For inhibitor screening, substrate concentrations at or below the Km are recommended. Twenty-five μL were used per well. Initial dilutions of 25-fold or greater in Assay Buffer (2.0 mM or less) yielded stable solutions (see NOTE on freezing and thawing below). Rapid mixing and dilution into room temperature buffer helped to prevent precipitation at high substrate concentration. […]
6. Samples were read in a microtiter-plate reading fluorimeter capable of excitation at a wavelength in the range 350-380 nm and detection of emitted light in the range 440-460 nm.

Assay [2] relates to MCF-7 breast cancer cells. In words: Cell Proliferation and Cytotoxicity Assay (CCK-8). Format: cell-based. The conditions noted are these: FIG. 15. An excerpt:
Cell Counting Kit-8 (CCK-8) (Dojindo) was used to determine the cytotoxicity of cells. CCK-8 assay kit uses a water-soluble WST-8 tetrazolium salt. This tetrazolium salt produces a water-soluble formazan dye upon reduction in the presence of an electron mediator (dehydrogenase). When WST-8 is reduced by dehydrogenases in living cells an orange colored product (formazan) is produced that can be detected in a 96-well plate format. The amount of the formazan dye generated by dehydrogenases is directly proportional to the number of living cells.
For this assay the following materials were required:
1. Plate reader (450 nm filter);
5. Tissue Culture Media; and
6. Actively growing cells (75-80% confluency).
The following dilutions with cell media were made prior to performance of an assay: Test compound solutions were made in a range from nano-molar to micro-molar with a final DMSO concentration not exceeding 0.1% and a total volume (e.g., 300 ul) necessary to perform duplicates of 100 μl doses.
A Cell Proliferation and Cytotoxicity Assay was performed as follows:
1. Dispense 100 μl of cell suspension (5000 cells/well) in a 96-well plate equal to the number of treatments plus controls done in duplicate;
2. Allow seeded cells to plate for 24 hours in a humidified incubator (at 37° C., 5% CO2);
3. […]
7. Measure the absorbance at 450 nm using a micro-plate reader; and […]

As a reminder, the IC50 is the point on the concentration scale where inhibition reaches its midpoint. For `O=C(CCCCCCC(=O)Nc1cccc2c1CN(C1CCC(=O)NC1=O)C2=O)NO` (centres unmarked) [SP-2-93, N^1-(2-(2,6-dioxopiperidin-3-yl)-1-oxoisoindolin-4-yl)-N^8-hydroxyoctanediamide], in assay [1] (Example 6, FIG. 18, 2 mg/mL formulation in 5% DMSO/40% PEG 400/55% PBS, read-out: IC50 against the PAN HDAC), the half-inhibitory concentration (IC50) was 1.89 µM.
Broadly, the EC50 is the concentration that produces a half-maximal response. Regarding `O=C(CCCCCCC(=O)NC1CCC(=O)NC1=O)NO` (centres unmarked) [SP-2-59, N^1-(2,6-dioxopiperidin-3-yl)-N^8-hydroxyoctanediamide], the EC50 came to 16.4 µM in assay [1] (FIG. 4) and 5.03 µM in assay [2] (Homo sapiens, MCF7, 48 hours incubation, read-out: EC50 against MCF-7 breast cancer cells). In assay [1] (between 5 μM and 15 μM, FIGS. 2 to 4), the “inhibitor activity in the pan-HDACs assays” value is “minimal inhibitor activity”. For the same compound, the MCF-7 cells killed in assay [2] (at about 10 μM) worked out at 78%.
